In assay [1] the target is human CB1 receptors (Homo sapiens (Human), UniProt P21554). Briefly: cAMP assay, CHO cells expressing human CB1 receptors. The format is cell-based. The method, then: (§1) CHO cells expressing human CB1 or CB2 receptors are seeded 17-24 hours prior to the experiment 50.000 cells per well in a black 96 well plate with flat clear bottom (Corning Costar #3904) in DMEM (Invitrogen No. 31331), 1×HT supplement, with 10% fetal calf serum and incubated at 5% CO2 and 37° C. in a humidified incubator. The growth medium was exchanged with Krebs Ringer Bicarbonate buffer with 1 mM IBMX and incubated at 30° C. for 30 min. Compounds were added to a final assay volume of 100 μl and incubated for 30 min at 30° C. Using the cAMP-Nano-TRF detection kit the assay (Roche Diagnostics) was stopped by the addition of 50 μl lysis reagent (Tris, NaCl, 1.5% Triton X100, 2.5% NP40, 10% NaN3) and 50 μl detection solutions (20 μM mAb Alexa700-cAMP 1:1, and 48 μM Ruthenium-2-AHA-cAMP) and shaken for 2 h at room temperature. The time-resolved energy transfer is measured by a TRF reader (Evotec Technologies GmbH), equipped with a ND:YAG laser as excitation source. The plate is measured twice with the excitation at 355 nm and at the emission with a delay of 100 ns and a gate of 100 ns, total exposure time 10 s at 730 (bandwidth 30 nm) or 645 nm (bandwidth 75 nm), respectively. The FRET signal is calculated as follows: FRET=T730-Alexa730-P(T645-B645) with P=Ru730-B730/Ru645-B645, where T730 is the test well measured at 730 nM, T645 is the test well measured at 645 nm, B730 and B645 are the buffer controls at 730 nm and 645 nm, respectively. cAMP content is determined from the function of a standard curve spanning from 10 μM to 0.13 nM cAMP.
human CB1 receptors, sequence (P21554 whole entry): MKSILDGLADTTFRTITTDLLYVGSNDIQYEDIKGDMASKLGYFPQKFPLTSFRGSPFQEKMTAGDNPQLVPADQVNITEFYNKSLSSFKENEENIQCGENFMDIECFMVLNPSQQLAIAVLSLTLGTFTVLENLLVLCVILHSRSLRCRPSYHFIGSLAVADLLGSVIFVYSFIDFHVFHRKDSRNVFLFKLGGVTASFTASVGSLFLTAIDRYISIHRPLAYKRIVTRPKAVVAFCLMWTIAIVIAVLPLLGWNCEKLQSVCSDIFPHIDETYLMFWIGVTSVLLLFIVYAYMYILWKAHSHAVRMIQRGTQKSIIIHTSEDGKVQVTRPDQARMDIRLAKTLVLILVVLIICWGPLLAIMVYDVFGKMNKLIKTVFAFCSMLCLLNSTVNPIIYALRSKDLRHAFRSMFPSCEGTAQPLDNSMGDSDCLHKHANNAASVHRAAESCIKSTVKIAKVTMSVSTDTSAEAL
(§2) EC50 values were determined using Activity Base analysis (ID Business Solution, Limited). The EC50 values for a wide range of cannabinoid agonists generated from this assay were in agreement with the values published in the scientific literature.
(Changes in cAMP serve as a functional read-out for many G protein-coupled receptors.)

In assay [2] the target is human CB2 receptors (Homo sapiens (Human), UniProt P34972). Kind of assay: cAMP assay, CHO cells expressing human CB2 receptors. The settings on record: functional cAMP assay, read-out: CB2 hcAMP EC50. The format is cell-based. As for the experimental part: as §1, §2
human CB2 receptors, sequence (P34972 whole entry): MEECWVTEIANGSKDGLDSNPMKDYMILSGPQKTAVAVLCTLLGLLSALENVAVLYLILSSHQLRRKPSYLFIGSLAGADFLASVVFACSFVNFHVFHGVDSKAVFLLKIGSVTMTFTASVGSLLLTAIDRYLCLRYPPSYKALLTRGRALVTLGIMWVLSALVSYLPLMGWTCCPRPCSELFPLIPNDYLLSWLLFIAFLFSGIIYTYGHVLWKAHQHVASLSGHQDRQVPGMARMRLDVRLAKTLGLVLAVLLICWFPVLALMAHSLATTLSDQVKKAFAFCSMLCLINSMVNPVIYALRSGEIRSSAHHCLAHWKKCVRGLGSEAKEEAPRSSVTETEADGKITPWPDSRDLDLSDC
[3] abbreviates: functional cAMP assay, CHO cells expressing human CB1, read-out: CB1 hcAMP EC50.

Results on 29 molecules are retold here after US10183946B2, “Triazolo[4,5-D]pyrimidines” (Hoffmann—La Roche Inc., priority 2014, dated 2019).

What is called pEC50 is the negative decadic logarithm of the EC50, by convention in mol/L.

pEC50: −log10 of the molar value. Like-named read-outs stand apart in the source and are kept apart here. A value given as a limit tells only on which side of the number the result lay.

Turning to `Cn1cc(-c2nc(C(C)(C)C)nc3c2nnn3Cc2ccccc2Cl)cn1` [Example 8, 5-tert-butyl-3-[(2-chlorophenyl)methyl]-7-(1-methylpyrazol-4-yl)triazolo[4,5-d]pyrimidine], the pEC50 in assay [1] (setting [3]) is below 5.00; in assay [2], 7.76.
On to `CC(C)(C)c1nc(C2(O)CCCCCC2)c2nnn(Cc3ccccc3Cl)c2n1` [Example 36, 1-[5-tert-Butyl-3-[(2-chlorophenyl)methyl]triazolo[4,5-d]pyrimidin-7-yl]cycloheptanol], for which the pEC50 is below 5.00 in assay [1] (setting [3]) and 7.76 in assay [2].
Take `Cn1nccc1-c1nc(C(C)(C)C)nc2c1nnn2CC1(C)COC1` [Example 23, 5-tert-butyl-3-[(3-methyloxetan-3-yl)methyl]-7-(2-methylpyrazol-3-yl)triazolo[4,5-d]pyrimidine]: the negative-log EC50 (pEC50) in assay [1] (setting [3]) is below 5.00; in assay [2] it was 6.35.
For `Cn1nccc1-c1nc(C(C)(C)C)nc2c1nnn2C[C@H](O)C(F)(F)F` [Example 17, (2S)-3-[5-tert-butyl-7-(2-methylpyrazol-3-yl)triazolo[4,5-d]pyrimidin-3-yl]-1,1,1-trifluoropropan-2-ol] the same measures were below 5.00 and 7.11.
On to `Cn1nccc1-c1nc(C(C)(C)C)nc2c1nnn2CC(O)CC(F)(F)F` (stereo not shown) [Example 16, 1-[5-tert-butyl-7-(2-methylpyrazol-3-yl)triazolo[4,5-d]pyrimidin-3-yl]-4,4,4-trifluorobutan-2-ol], for which the pEC50 in assay [1] (setting [3]) was below 5.00; in assay [2] it was 7.37.
For `CC(C)(C)c1nc(C2(O)CCC2)c2nnn(Cc3ccccc3Cl)c2n1` [Example 33, 1-[5-tert-Butyl-3-[(2-chlorophenyl)methyl]triazolo[4,5-d]pyrimidin-7-yl]cyclobutanol] the same measures were below 5.00 and 6.63.
For `Cc1nnc(Cn2nnc3c(-c4ccnn4C)nc(C(C)(C)C)nc32)o1` [Example 15, 2-[[5-tert-butyl-7-(2-methylpyrazol-3-yl)triazolo[4,5-d]pyrimidin-3-yl]methyl]-5-methyl-1,3,4-oxadiazole] the same measures were below 5.00 and 6.50.
For `Cn1nccc1-c1nc(C(C)(C)C)nc2c1nnn2C1CCOC1` (stereo not shown) [Example 18, 5-tert-butyl-7-(2-methylpyrazol-3-yl)-3-(oxolan-3-yl)triazolo[4,5-d]pyrimidine] the same measures were below 5.00 and 7.07.
As to `CC(C)(C)c1nc(-c2ccc(Cl)cc2F)c2nnn(Cc3ccccc3Cl)c2n1` [Example 5, 5-tert-butyl-7-(4-chloro-2-fluorophenyl)-3-[(2-chlorophenyl)methyl]triazolo[4,5-d]pyrimidine], the pEC50 in assay [1] (setting [3]) was below 5.00; in assay [2], 7.05.
In the case of `Cn1nccc1-c1nc(C(C)(C)C)nc2c1nnn2Cc1ncccc1Cl` [Example 21, 5-tert-butyl-3-[(3-chloropyridin-2-yl)methyl]-7-(2-methylpyrazol-3-yl)triazolo[4,5-d]pyrimidine], the values for the pEC50 in assay [1] (setting [3]) and in assay [2] were below 5.00 and 7.40, respectively.
Regarding `CC(C)(C)c1nc(C2(O)CCCCCCC2)c2nnn(Cc3ccccc3Cl)c2n1` [Example 37, 1-[5-tert-Butyl-3-[(2-chlorophenyl)methyl]triazolo[4,5-d]pyrimidin-7-yl]cyclooctanol], the pEC50 in assay [1] was below 5.00; in assay [2], 6.90.
For `CC(C)(C)c1nc(C2CCCC2)c2nnn(Cc3ccccc3)c2n1` [Example 45b, 3-benzyl-5-tert-butyl-7-cyclopentyl-triazolo[4,5-d]pyrimidine], the pEC50 in assay [1] (setting [3]) is below 5.00; in assay [2], 7.52.
On to `CC(C)(C)c1nc(-c2ccccc2)c2nnn(Cc3ccccc3Cl)c2n1` [Example 10, 5-tert-butyl-3-[(2-chlorophenyl)methyl]-7-phenyltriazolo[4,5-d]pyrimidine], for which the negative-log EC50 (pEC50) in assay [1] (setting [3]) was below 5.00; in assay [2] it was 7.10.
For `CCC(O)(CC)c1nc(C(C)(C)C)nc2c1nnn2Cc1ccccc1Cl` [Example 38, 3-[5-tert-Butyl-3-[(2-chlorophenyl)methyl]triazolo[4,5-d]pyrimidin-7-yl]pentan-3-ol] the same measures were below 5.00 and 7.34.
For `Cn1nnnc1Cn1nnc2c(-c3cnnn3Cc3ccccc3)nc(C(C)(C)C)nc21` [Example 29, 7-(3-benzyltriazol-4-yl)-5-tert-butyl-3-[(1-methyltetrazol-5-yl)methyl]triazolo[4,5-d]pyrimidine] the same measures were below 5.00 and 7.78.
In the case of `CC(C)(C)c1nc(C2(O)CSC2)c2nnn(Cc3ccccc3Cl)c2n1` [Example 39, 3-[5-tert-Butyl-3-[(2-chlorophenyl)methyl]triazolo[4,5-d]pyrimidin-7-yl]thietan-3-ol], the values for the pEC50 in assay [1] (setting [3]) and in assay [2] were below 5.00 and 6.78, respectively.
Turning to `CC(C)(C)c1nc(-c2ccccc2F)c2nnn(Cc3ccccc3Cl)c2n1` [Example 4, 5-tert-butyl-3-[(2-chlorophenyl)methyl]-7-(2-fluorophenyl)triazolo[4,5-d]pyrimidine], the pEC50 was below 5.00 in assay [1] (setting [3]) and 7.19 in assay [2].
For `Cn1nnnc1Cn1nnc2c(-c3ncc[nH]3)nc(C(C)(C)C)nc21` [Example 28, 5-tert-butyl-7-(1H-imidazol-2-yl)-3-[(1-methyltetrazol-5-yl)methyl]triazolo[4,5-d]pyrimidine], the pEC50 in assay [1] (setting [3]) is below 5.00; in assay [2], 7.90.
`Cn1nccc1-c1nc(C(C)(C)C)nc2c1nnn2Cc1ccccc1Cl` [Example 9, 5-tert-butyl-3-[(2-chlorophenyl)methyl]-7-(2-methylpyrazol-3-yl)triazolo[4,5-d]pyrimidine]: the values for the pEC50 in assay [1] (setting [3]) and in assay [2] were below 5.00 and 7.35, respectively.
For `CC(C)(C)c1nc(C2(F)CCC2)c2nnn(Cc3ccccc3)c2n1` [Example 32, 3-Benzyl-5-tert-butyl-7-(1-fluorocyclobutyl)triazolo[4,5-d]pyrimidine] the same measures were below 5.00 and 7.62.
Take `Cn1nnnc1Cn1nnc2c(-c3cn[nH]c3)nc(C(C)(C)C)nc21` [Example 25, 5-tert-butyl-3-[(1-methyltetrazol-5-yl)methyl]-7-(1H-pyrazol-4-yl)triazolo[4,5-d]pyrimidine]: the pEC50 in assay [1] (setting [3]) was below 5.00; in assay [2], 7.49.
For `Cc1oncc1-c1nc(C(C)(C)C)nc2c1nnn2Cc1ccccc1Cl` [Example 11, 4-[5-tert-butyl-3-[(2-chlorophenyl)methyl]triazolo[4,5-d]pyrimidin-7-yl]-5-methyl-1,2-oxazole] the same measures were below 5.00 and 7.12.
For `CC(C)(C)c1nc(C2=CCCC2)c2nnn(Cc3ccccc3Cl)c2n1` [Example 44, 5-tert-Butyl-3-[(2-chlorophenyl)methyl]-7-(cyclopenten-1-yl)triazolo[4,5-d]pyrimidine] the same measures were below 5.00 and 8.40.
For `Cn1nnnc1Cn1nnc2c(-c3cc[nH]n3)nc(C(C)(C)C)nc21` [Example 26, 5-tert-butyl-3-[(1-methyltetrazol-5-yl)methyl]-7-(1H-pyrazol-3-yl)triazolo[4,5-d]pyrimidine], the pEC50 in assay [1] (setting [3]) is below 5.00; in assay [2], 6.24.
For `CC(C)(C)c1nc(C2(O)CCCC2)c2nnn(Cc3ccccc3Cl)c2n1` [Example 34, 1-[5-tert-Butyl-3-[(2-chlorophenyl)methyl]triazolo[4,5-d]pyrimidin-7-yl]cyclopentanol] the same measures were below 5.00 and 7.45.
For `CC(C)(C)c1nc(C2(O)CCCCC2)c2nnn(Cc3ccccc3Cl)c2n1` [Example 35, 1-[5-tert-Butyl-3-[(2-chlorophenyl)methyl]triazolo[4,5-d]pyrimidin-7-yl]cyclohexanol] the same measures were below 5.00 and 6.76.
For `CC(C)(C)c1nc(-c2ccc(F)cc2)c2nnn(Cc3ccccc3Cl)c2n1` [Example 2, 5-tert-butyl-3-[(2-chlorophenyl)methyl]-7-(4-fluorophenyl)triazolo[4,5-d]pyrimidine] the same measures were below 5.00 and 7.55.
On to `Cc1ccc(-c2nc(C(C)(C)C)nc3c2nnn3Cc2ccccc2Cl)nc1` [Example 7, 5-tert-butyl-3-[(2-chlorophenyl)methyl]-7-(5-methylpyridin-2-yl)triazolo[4,5-d]pyrimidine], for which the pEC50 in assay [1] (setting [3]) is below 5.00; in assay [2], 6.31.
For `CC(C)(C)c1nc2c(nnn2Cc2ccccc2Cl)c([C@]2(O)C[C@@H](C(F)F)C2)n1` [Example 41, Cis-1-[5-tert-Butyl-3-[(2-chlorophenyl)methyl]triazolo[4,5-d]pyrimidin-7-yl]-3-(difluoromethyl)cyclobutanol] the same measures were below 5.00 and 7.52.
